Assay results published in PMC11173529, “Structure–Activity Relationship Studies in a Series of Xanthine Inhibitors of SLACK Potassium Channels” (Molecules, 2024).

Each molecule was assayed against T1, WT hSLACK (Homo sapiens, UniProt Q5JUK3) (assay: Whole-cell automated patch-clamp (APC) in CHO cells stably expressing WT hSLACK). Conditions: maximum inhibition at 30 µM test compound standardized to VU0606170 (set at 100%); WT hSLACK.
T1 construct: host or cells: CHO-K1
T1 sequence (Q5JUK3 1-1235 isoform Q5JUK3-3): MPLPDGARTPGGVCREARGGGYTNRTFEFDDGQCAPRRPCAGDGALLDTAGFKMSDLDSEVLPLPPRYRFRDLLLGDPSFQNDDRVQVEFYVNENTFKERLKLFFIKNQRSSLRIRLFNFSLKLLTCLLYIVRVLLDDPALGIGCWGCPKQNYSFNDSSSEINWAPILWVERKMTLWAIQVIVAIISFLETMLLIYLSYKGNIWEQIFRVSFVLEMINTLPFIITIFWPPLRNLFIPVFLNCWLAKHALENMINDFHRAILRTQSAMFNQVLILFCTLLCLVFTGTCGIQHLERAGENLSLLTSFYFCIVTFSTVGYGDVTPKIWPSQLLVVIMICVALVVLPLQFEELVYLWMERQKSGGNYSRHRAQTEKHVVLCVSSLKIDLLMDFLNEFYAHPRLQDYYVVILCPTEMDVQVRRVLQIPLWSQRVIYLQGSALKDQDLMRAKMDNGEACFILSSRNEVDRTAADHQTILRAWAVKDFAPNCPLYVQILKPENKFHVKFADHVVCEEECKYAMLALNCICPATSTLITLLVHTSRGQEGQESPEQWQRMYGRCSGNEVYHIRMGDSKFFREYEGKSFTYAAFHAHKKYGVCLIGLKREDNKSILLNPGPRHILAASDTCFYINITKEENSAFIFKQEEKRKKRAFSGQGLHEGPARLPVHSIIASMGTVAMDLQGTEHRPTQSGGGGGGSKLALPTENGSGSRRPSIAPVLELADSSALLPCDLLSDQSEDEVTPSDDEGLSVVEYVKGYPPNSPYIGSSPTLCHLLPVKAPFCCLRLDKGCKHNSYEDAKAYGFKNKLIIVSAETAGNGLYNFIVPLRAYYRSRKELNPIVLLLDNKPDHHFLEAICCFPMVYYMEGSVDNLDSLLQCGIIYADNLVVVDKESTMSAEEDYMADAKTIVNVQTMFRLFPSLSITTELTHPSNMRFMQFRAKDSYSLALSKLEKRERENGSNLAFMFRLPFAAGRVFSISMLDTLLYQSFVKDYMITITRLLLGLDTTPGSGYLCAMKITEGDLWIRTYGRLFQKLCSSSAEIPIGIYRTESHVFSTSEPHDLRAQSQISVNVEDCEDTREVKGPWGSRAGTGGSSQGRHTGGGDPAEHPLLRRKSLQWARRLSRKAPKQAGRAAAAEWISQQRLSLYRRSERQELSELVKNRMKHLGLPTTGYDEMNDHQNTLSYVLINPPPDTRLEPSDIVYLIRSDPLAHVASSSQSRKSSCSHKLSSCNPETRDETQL
Type: cell-based
Description: All new analogs were tested in our APC assay using CHO cells stably expressing WT SLACK using a concentration-response format with concentrations ranging from 0.125 to 30 μM in half-log steps and a minimum of three cells (replicates) per concentration series. […] Still, there were some notable results. For example, substitution at the 4-position was largely unfavorable regardless of the nature of the substituent (21, 24, 27, 30, and 33) apart from the 4-fluoro analog 18. […] As the trifluoromethyl group is similar in electronegativity to chlorine, but larger than both methyl and chlorine, perhaps the steric bulk of the trifluoromethyl is to blame for the poor potency of these analogs. With the exception of the fluoro (16–18) and cyano (28–30) analogs, substitution at the 3-position was favorable for SLACK activity, with 3-methoxy analog 32 standing out in this set.
Stably transfected monoclonal HEK293 cell lines expressing Slick, Maxi-K α1/β3, Maxi-K α1/β4, CaV3.2, GIRK 1/2, KV2.1, KV7.2, NaV1.7, and TASK-1 were generated as previously described. Stably transfected monoclonal HEK293 cell lines expressing hERG were generated as previously described. CHO-K1 cells expressing human Slack and disease-associated human Slack mutations, G288S and A934T, were generated by transfecting a PiggyBac TRE mammalian expression vector (VectorBuilder, Chicago, IL, USA) containing KCNT1. FuGENE 6 (Promega, Madison, WI, USA) transfection reagent and protocol, together with Opti-MEM (Thermo Fisher Scientific, Walkham, MA, USA), were utilized.
Automated patch-clamp recording was performed with a SyncroPatch 768 PE system (Nanion, Munich, Germany) as previously described. Whole-cell recordings were performed at room temperature. Cells were harvested by first washing with PBS without Mg^2+ or Ca^2+ (Gibco, Billings, MT, USA) to remove cell culture media, followed by dissociation with TryPLE (Gibco, Billings, MT, USA). Cells were then resuspended and diluted to 100,000 cells/mL in external solution. External solution contained 105 mM NaCl, 4 mM KCl, 1 mM MgCl2, 5 mM CaCl2, 10 mM HEPES, and 40 mM N-Methyl-D-glucamine chloride, titrated to pH of 7.4 and osmolarity of 300 mOsm/kg; internal solution contained 70 mM NaCl, 70 mM KF, 10 mM KCl, 5 mM EGTA, and 5 mM HEPES, titrated to a pH of 7.2 and osmolarity of 295 mOsm/kg.
The APC protocol was set as follows: Cells were held at a […] of −80 mV for 100 ms, then a ramp protocol was performed from −100 mV to 80 mV at 0.4 mV/ms, followed by holding the cell at −80 mV for another 100 ms, then steps were performed at −20 mV, 0 mV, +20 mV, +40 mV, and +60 mV for 100 ms of each step. Whole-cell currents were measured at 0 mV and normalized to current after external buffer addition. […] To obtain the concentration-response relationship graphs and IC50 values, we take the median value of the last 7 current amplitude values obtained for each set of data points collected for a given concentration at a particular step.

Compound | SLACK Imax
CN(Cc1ccccc1)c1nc2c(c(=O)n(Cc3ccccc3)c(=O)n2C)n1CC1CC1 [Analog 43] | 55%
Cn1c(NCc2ccccc2)nc2c1c(=O)n(Cc1ccccc1)c(=O)n2C [Analog 46a] | 88%
CN(Cc1ccccc1F)c1nc2c(c(=O)n(Cc3ccccc3)c(=O)n2C)n1C [Analog 47] | 100%
CN(Cc1ccccc1Cl)c1nc2c(c(=O)n(Cc3ccccc3)c(=O)n2C)n1C [Analog 50] | 100%
CN(Cc1ccc(Cl)cc1)c1nc2c(c(=O)n(Cc3ccccc3)c(=O)n2C)n1C [Analog 52] | 100%
Cc1ccccc1CN(C)c1nc2c(c(=O)n(Cc3ccccc3)c(=O)n2C)n1C [Analog 53] | 100%
Cc1cccc(CN(C)c2nc3c(c(=O)n(Cc4ccccc4)c(=O)n3C)n2C)c1 [Analog 54] | 100%
COc1ccccc1CN(C)c1nc2c(c(=O)n(Cc3ccccc3)c(=O)n2C)n1C [Analog 59] | 101%
COc1cccc(CN(C)c2nc3c(c(=O)n(Cc4ccccc4)c(=O)n3C)n2C)c1 [Analog 60] | 100%
COc1ccc(CN(C)c2nc3c(c(=O)n(Cc4ccccc4)c(=O)n3C)n2C)cc1 [Analog 61] | 100%
CN(Cc1ccccn1)c1nc2c(c(=O)n(Cc3ccccc3)c(=O)n2C)n1C [Analog 62] | 107%
CN(Cc1cccnc1)c1nc2c(c(=O)n(Cc3ccccc3)c(=O)n2C)n1C [Analog 63] | 20%
CN(Cc1ccncc1)c1nc2c(c(=O)n(Cc3ccccc3)c(=O)n2C)n1C [Analog 64] | 70%

Results, then the molecule that gave them:

SLACK Imax | Compound
100% | CN(Cc1ccc(F)cc1)c1nc2c(c(=O)n(Cc3ccccc3)c(=O)n2C)n1C [Analog 49]
100% | CN(Cc1cccc(Cl)c1)c1nc2c(c(=O)n(Cc3ccccc3)c(=O)n2C)n1C [Analog 51]
100% | Cc1ccc(CN(C)c2nc3c(c(=O)n(Cc4ccccc4)c(=O)n3C)n2C)cc1 [Analog 55]
100% | CN(Cc1ccccc1C(F)(F)F)c1nc2c(c(=O)n(Cc3ccccc3)c(=O)n2C)n1C [Analog 56]
101% | CN(Cc1cccc(C(F)(F)F)c1)c1nc2c(c(=O)n(Cc3ccccc3)c(=O)n2C)n1C [Analog 57]
100% | CN(Cc1ccc(C(F)(F)F)cc1)c1nc2c(c(=O)n(Cc3ccccc3)c(=O)n2C)n1C [Analog 58]
100% | C[C@H](c1ccccc1)N(C)c1nc2c(c(=O)n(Cc3ccccc3)c(=O)n2C)n1C [Analog 65]

Same assay, conditions: whole-cell APC, CHO cells stably expressing WT hSLACK, averages n ≥ 3; read-out: SLACK IC50

Compound | IC50
CN(Cc1ccccc1)c1nc2c(c(=O)n(Cc3ccccc3)c(=O)n2C)n1CC1CC1 [Analog 43] | > 10 µM
Cn1c(NCc2ccccc2)nc2c1c(=O)n(Cc1ccccc1)c(=O)n2C [Analog 46a] | 6 µM
CN(Cc1ccccc1F)c1nc2c(c(=O)n(Cc3ccccc3)c(=O)n2C)n1C [Analog 47] | 2.7 µM
CN(Cc1ccccc1Cl)c1nc2c(c(=O)n(Cc3ccccc3)c(=O)n2C)n1C [Analog 50] | 3 µM
CN(Cc1ccc(Cl)cc1)c1nc2c(c(=O)n(Cc3ccccc3)c(=O)n2C)n1C [Analog 52] | 2.3 µM
Cc1ccccc1CN(C)c1nc2c(c(=O)n(Cc3ccccc3)c(=O)n2C)n1C [Analog 53] | 9.9 µM
Cc1cccc(CN(C)c2nc3c(c(=O)n(Cc4ccccc4)c(=O)n3C)n2C)c1 [Analog 54] | 2 µM
COc1ccccc1CN(C)c1nc2c(c(=O)n(Cc3ccccc3)c(=O)n2C)n1C [Analog 59] | 4.7 µM
COc1cccc(CN(C)c2nc3c(c(=O)n(Cc4ccccc4)c(=O)n3C)n2C)c1 [Analog 60] | 2.7 µM
COc1ccc(CN(C)c2nc3c(c(=O)n(Cc4ccccc4)c(=O)n3C)n2C)cc1 [Analog 61] | 2.4 µM
CN(Cc1ccccn1)c1nc2c(c(=O)n(Cc3ccccc3)c(=O)n2C)n1C [Analog 62] | > 10 µM
CN(Cc1cccnc1)c1nc2c(c(=O)n(Cc3ccccc3)c(=O)n2C)n1C [Analog 63] | > 10 µM
CN(Cc1ccncc1)c1nc2c(c(=O)n(Cc3ccccc3)c(=O)n2C)n1C [Analog 64] | > 10 µM

The next molecules have a lower IC50 than those just listed; values first:

IC50 | Compound
1.6 µM | CN(Cc1ccc(F)cc1)c1nc2c(c(=O)n(Cc3ccccc3)c(=O)n2C)n1C [Analog 49]
1.7 µM | CN(Cc1cccc(Cl)c1)c1nc2c(c(=O)n(Cc3ccccc3)c(=O)n2C)n1C [Analog 51]
1.8 µM | Cc1ccc(CN(C)c2nc3c(c(=O)n(Cc4ccccc4)c(=O)n3C)n2C)cc1 [Analog 55]
1.9 µM | CN(Cc1ccccc1C(F)(F)F)c1nc2c(c(=O)n(Cc3ccccc3)c(=O)n2C)n1C [Analog 56]
1.5 µM | CN(Cc1cccc(C(F)(F)F)c1)c1nc2c(c(=O)n(Cc3ccccc3)c(=O)n2C)n1C [Analog 57]
1.9 µM | CN(Cc1ccc(C(F)(F)F)cc1)c1nc2c(c(=O)n(Cc3ccccc3)c(=O)n2C)n1C [Analog 58]
1.6 µM | C[C@H](c1ccccc1)N(C)c1nc2c(c(=O)n(Cc3ccccc3)c(=O)n2C)n1C [Analog 65]
